Entries after “also recorded” stand apart in the source; their conditions may differ.
Columns and labels:
Glu-tubulin = test: Western blotting of modified tubulin isoforms in attached or suspended cells; format: cell-based, mouse; settings: for cellular levels of Glu-tubulin: EpH4-Bcl2, attached or detached, LA 5 μM
Procedure: EpH4-Bcl2 cells were grown attached to tissue culture dishes or suspended over agarose for the indicated times in either the absence or presence of LA (5 μM). In FIG. 5A, cell lysates were immunoblotted to detect levels of modified tubulin isoforms in the cell populations. In FIG. 5B, modified α-tubulin isoforms were normalized to total α-tubulin and then compared relative to the levels in attached cells at time zero. Bars represent the mean+S.E.M. of four independent experiments. […] Differences in Glu-tubulin upon detachment were also statistically-significant when compared to matched controls at time zero or one hour (black asterisks).
Whole cell lysates were prepared from EpH4 cells that were scraped or suspended in the presence or absence of 5 μM Latrunculin-A. Cells were pelleted at 3000 rpm×5 min and resuspended in lysis buffer (2% SDS, 100 mM Tris-HCl (pH 6.8), 20% Glycerol, 20 mM DTT, 1 mM phenylmethylsulfonyl fluoride, 1% protease inhibitor cocktail (Sigma, P2714)), and then immediately boiled for 10 min. Protein concentration was measured using a Lowry based assay (Bio-Rad, Hercules, Calif.). The amount of 17.5 μg of protein from each sample was separated by SDS-PAGE on 10% polyacrylamide gels and then transferred to Immuno-Blot PVDF membranes (Bio-Rad, Hercules, Calif.). The membrane was blocked in 2% milk in TBS with 0.1% Tween for 1 hr at room temperature followed by an overnight incubation at 4° C. in monoclonal α-tubulin (1:1000), tyrosinated tubulin (1:1000), acetylated tubulin (1:1000), and polyclonal detyrosinated tubulin (1:1000) in 1% milk in TBST. Secondary antibodies to IgG conjugated to horseradish peroxidase were used (1:5000; GE Healthcare, Piscataway, N.J.) and visualized using ECL chemiluminescent detection kit.
Immediately following detachment, levels of Glu-tubulin increase and remain elevated for at least 2 hours. […] The increased length and number of protrusions in response to LA may therefore reflect a decrease in an actin-dependent counteracting force, rather than a direct induction of protrusions.

[1] = tested on: detached mammary epithelial cells; test: Protrusions of detached mammary epithelial cells, general statements; format: cell-based, human and mouse
Procedure: Time-lapse video microscopy of detached mammary epithelial cells detected the extension of long, dynamic protrusions of the plasma membrane, and the present inventors have characterized the cytoskeletal mechanism underlying this novel observation. […] This response may be relatively short-lived, in specific embodiments, since mammary epithelial cells die by apoptosis within about 24 hours in suspension. However, cell lines that resist apoptosis through expression of either Bcl-2 or Bcl-xL will persistently form protrusions. Previous studies by the inventors indicate that such apoptotically-resistant cell lines will not form tumors in mice and lie dormant in distant tissues, in specific embodiments of the invention. […] These microtubule processes can extend more than 3 times the cell diameter, and undergo a rapid probing motion more than once per second. Formation of these microtubule protrusions is necessary for efficient cell-cell and cell-substratum attachment. In particular embodiments of the invention, this inherent microtubule response in detached mammary epithelial cells provides at least some of the invasive characteristics of breast cancer, independent of any tumor-specific genetic alteration, for example.
Breast tumor cells enter the bloodstream long before the development of clinically evident metastasis. However, the early presence of such bloodborne cells predicts poor patient outcome. Nearly 90% of human breast tumors arise as carcinomas from mammary epithelial cells, so it is important to characterize how these cells respond to the detached conditions that they would experience in the bloodstream. In the present invention, mammary epithelial cell lines produce long and dynamic protrusions of the plasma membrane when detached. Although human and mouse mammary epithelial cell lines die by apoptosis within 16 hours of detachment, this protrusive response persists for days in cells overexpressing either Bcl-2 or Bcl-xL, for example. […] Since bloodborne metastasis depends on both cell-cell and cell-matrix attachment, microtubule-based protrusions in detached mammary epithelial cells provide a novel target that could influence the metastatic spread of breast tumors.
Detachment-induced increases in Glu-tubulin could promote plasma membrane protrusions of microtubules by preventing efficient capture at the actin cortex. […] Therefore, our current model is that detachment increases stabilized microtubules enriched in Glu-tubulin, while decreased actin polymerization simply promotes extension of these microtubule protrusions.

## C/C1=C/C(=O)O[C@@H]2C[C@@H](CC[C@H](C)/C=C\C=C\CC1)O[C@@](O)([C@@H]1CSC(=O)N1)C2 [Latrunculin-A]
Glu-tubulin; EpH4-Bcl2, LA treatment
  total cellular levels of α-tubulin, tyrosinated or acetylated tubulin: remain unaffected
Glu-tubulin
  cellular levels of Glu-tubulin: did not increase
Glu-tubulin; listed as LA
  cellular levels of Glu-tubulin: not specifically increased; also recorded: does not significantly increase cellular levels of Glu-tubulin
[1]
  protrusions: enhanced; also recorded: promotes the extension of microtubule protrusions
